Legend:
Myc-Cap (MC) tumors = experiment: s.c. Myc-Cap (MC) prostate tumor model; format: in vivo, mouse
Excerpt: All TRAMP mice, their derivatives and s.c. Myc-Cap transplantation were in the FVB genetic background and their basic immune parameters are shown in FIG. 15a-m. For s.c. TRAMP-C2 tumors, C57BL/6 mice were used. In both s.c. tumors, 2-3×10^6 cells/mouse were transplanted. More detailed information is as follows.
Mouse treatment studies were “matched design control trials.” Accordingly, mice were randomly chosen and paired based on sex (male), age (FIG. 6a) and tumor size. For transplanted tumor models, tumor size was defined by the median tumor volume (e.g. 400 mm^3, for late treatments, FIG. 6a,f). For TRAMP transgenic tumor models, treatment decisions were made based on age and mice were randomly chosen including a control littermate. An identification code was assigned to each tumor-bearing mouse both in the transplanted and transgenic models, and the investigators were blinded to treatment allocation at the time of tumor volume measurement, autopsy and analysis.
2×10^6 Myc-Cap^11 or 3×10^6 TRAMP-C2^12 cells (purchased from ATCC) were s.c. injected into the right flank. Tumors were measured every 2-3 days using a caliper. Tumor volumes were calculated as width^2×length/2.
B cells were depleted as previously described^13. Mice were weekly injected (i.p.) with a mixture of monoclonal antibodies, each at 150 μg/mouse: rat anti-mouse CD19 (clone 1D3), rat anti-mouse B220 (clone RA36B2), and mouse anti-mouse CD22 (clone CY34). After 48 hrs, the mice were injected with a secondary antibody (mouse anti-rat kappa chain; GeneTex) at 150 μg/mouse. In addition, mice were injected weekly, but not on the same day, with 250 μg/mouse rat anti-mouse CD20 (Genentech). Rat anti-mouse IgG2a and IgG1 were used as isotype controls. Mice were treated for 3 weeks in total (FIG. 1g; FIG. 7i-p). […]

Myc-Cap (MC) cells = experiment: Cell death and autophagy of Myc-Cap cells in vitro (Annexin V/PI, LC3A flow cytometry); format: cell-based, mouse
Excerpt: All results are means±s.e.m.
For adoptive T cell transfer (ATCT) CD8^+ T cells were isolated from single cell suspensions, prepared from spleens and lymph nodes as described above, using CD8α-specific microbeads and MACS-columns (both Miltenyi Biotec GmbH, Bergisch Gladbach, Germany), and 5×10^6 CD8^+ T cells were transferred intraperitoneally (i.p.; FIG. 14a-j). For adoptive B cell transfer (ABCT), B cells (B220^+/CD19^+) were isolated from single cell suspensions prepared from spleens using CD19- and B220-specific microbeads and MACS-columns, and 5×10^6 B cells were transferred i.p. (FIG. 4g-h, FIG. 12n,o). For adoptive splenocytes transfer (ACT), single cell suspensions prepared from spleens were transferred i.p., with one total spleen injected per mouse. Labelling with 5-(and 6-) carboxyfluorescein diacetate succinimidyl ester (CFSE; Molecular Probes, Eugene, Oreg.) was done according to manufacturer's protocol. 5×10^6 CD8^+ T cells or 7×10^6 B cells were transferred (equal to one spleen per mouse; FIG. 5a-i and FIG. 14k-q). For combined adoptive B and T cell transfer (FIG. 5j-1, FIG. 14r-t), T cells were isolated from WT-FVB mice immunized with a Myc-Cap cell lysate as previously described^10. […] The extent of cell death was determined by flow cytometry, showing that more than 90% of cells were positive for Annexin V and PI. The dead cells were injected subcutaneously (s.c.) into WT-FVB mice. Seven days later, T cells were isolated from single cell suspensions of spleen and LN using a Pan T cell isolation Kit (Miltenyi Biotec). B cells were isolated from spleens of naïve FVB-WT or FVB-Tgfbr2^ΔB mice using a Pan B cell isolation kit (Miltenyi Biotec). MC-tumor bearing Rag1^−/− mice received 5×10^6 T cells with or without 5×10^6 B cells (98% pure) from WT or Tgfbr2^ΔB mice. Purity was analyzed on a Beckman Coulter Cyan ADP flow cytometer and was always >98%.

serum IgA, IgG = experiment: Serum IgA and IgG ELISA in tumor-bearing mice; format: in vivo, mouse; conditions: TRAMP and MC-tumor models, oxaliplatin alone
Description: Anti-SV40 Tag immunoglobulin ELISA was performed as previously described^33. IgA and IgG ELISA kits were purchased from eBioscience, and used according to manufacturer's protocols. Tumoral single cell suspension has been prepared as described above in the flow cytometry section, and was washed 2-3 times with 1×PBS/2mMEDTA/2% FCS, to remove soluble IgA. Thereafter, about 3×10^6 cells/24-well were plated in either 10% FCS/DMEM or Hybridoma medium (Life Technology). After 24 hrs, the supernatants were analysed for IgA content. Media without cells were used as controls.

## O=C1[O][Pt]2([NH][C@@H]3CCCC[C@H]3[NH]2)[O]C1=O [oxaliplatin]
Myc-Cap (MC) tumors; Cd8a−/− mice
  response of MC tumors: No response
Myc-Cap (MC) tumors; Iga−/− mice versus WT
  response of MC tumors to oxaliplatin with IgA ablation: potentiated the response to oxaliplatin
Myc-Cap (MC) tumors; LD, 6 mg/kg, 3 weekly cycles, tumors 400 mm3
  regression of MC tumors raised in Jh−/− mice: led to regression of MC tumors
Myc-Cap (MC) tumors; MC tumors in Rag1−/− mice
  tumor regression and CTL activation after T cell ± B cell transfer: induced tumor regression and CTL activation only in mice receiving T cells, or T cells+TGFβR2-deficient B cells
Myc-Cap (MC) tumors; WT and Jh−/− mice
  tumor infiltration with CD45+ cells: enhanced tumor infiltration with CD45^+ cells
Myc-Cap (MC) tumors; WT mice, early treatment
  response of small MC tumors (≤100 mm3): chemotherapy responsive
Myc-Cap (MC) tumors; WT versus Jh−/− mice, late treatment
  response of large MC tumors (≥350-400 mm3): shrank upon oxaliplatin treatment only in Jh^−/− mice
Myc-Cap (MC) tumors; associated with oxaliplatin responsiveness
  caspase 3 activation in tumors (apoptosis): enhanced caspase 3 activation
Myc-Cap (MC) tumors; regardless of host genotype
  tumoral DNA damage response (histone H2AX phosphorylation): similarly activated
Myc-Cap (MC) cells; 24 hrs, both at 20 µM
  apoptotic cell death of MC cells (Annexin V, propidium iodide): induced apoptotic cell death
Myc-Cap (MC) cells; MC cells, 24 hrs, 20 µM, compared with cisplatin
  stimulation of autophagy (LC3A): more effective in stimulating autophagy
Myc-Cap (MC) cells; Myc-Cap cells, oxaliplatin 40 μM, 48 hrs, flow cytometry
  cells positive for Annexin V and PI (extent of cell death): more than 90%
Serum IgA, IgG
  serum IgA: increased serum IgA
  serum IgG: little effect on serum IgG

— patent US10722523B2, “Chemoimmunotherapy for epithelial cancer” (THE REGENTS OF THE UNIVERSITY OF CALIFORNIA, priority 2015, dated 2020)
